Data set [1] in a line: Solubility (characterization of endiandric acid H). The class given is physicochemical.
Data set [2] can be described thus: Stability in the solid state and in solution. Type of data set: physicochemical. Conditions: solid state; solutions in the pH range between 3 and 8, in particular 4 and 6.
Another data set deals with T1, c-maf (Mus musculus, UniProt P54843).
T1 construct: expressed in transfected cells; host or cells: CHO-K1 (monoclonal line c-maf/IL-4 luc/NFAT)
T1 sequence (P54843 1-370): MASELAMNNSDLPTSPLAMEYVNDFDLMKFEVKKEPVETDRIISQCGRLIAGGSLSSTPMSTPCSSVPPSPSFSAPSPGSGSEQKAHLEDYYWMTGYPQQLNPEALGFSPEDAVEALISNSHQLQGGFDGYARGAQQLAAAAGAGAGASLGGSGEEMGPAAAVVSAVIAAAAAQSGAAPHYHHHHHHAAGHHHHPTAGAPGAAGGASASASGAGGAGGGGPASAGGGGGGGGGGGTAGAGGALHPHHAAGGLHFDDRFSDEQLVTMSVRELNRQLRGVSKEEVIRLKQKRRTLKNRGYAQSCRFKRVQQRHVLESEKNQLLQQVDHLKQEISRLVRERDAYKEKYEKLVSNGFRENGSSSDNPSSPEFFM
The data set is described as follows: Bioassay: human IL-4 promoter/luciferase reporter in c-maf/IL-4 luc/NFAT CHO-K1 cell line. Conditions: CHO-K1 cells with c-maf/IL-4 luc/NFAT vectors, 8 hours incubation; read-out: IC50 in the bioassay (inhibition of luciferase expression). Type of data set: cell-based, murine. The method, then: The zipper protein c-maf represents the assay target. It plays an important part in the release of mediators of inflammation, especially IL-4, and thus in the manifestation of inflammatory symptoms in asthma and allergies. c-maf is thus an important therapeutic target molecule for asthma, especially if it has an allergic cause. The activity of c-maf is measured in the assay on the basis of the IL-4 transcription rate. Compounds which interfere with the binding of the two transcription factors c-maf and NFAT lead in this case to a reduced expression of luciferase (read-out) through suppression of the transcription of a human IL-4 promoter/luciferase construct. […]
16 hours before the assay, CHO-K1 cells were harvested by trypsinization, washed once with PBS without Ca and Mg, resuspended in Ham's F-12 medium which additionally contained 10% fetal calf serum, 1% antibiotic/antimycotic, 0.001% Pluronic, 300 μg/ml Geneticin and 300 μg/ml Zeocin, and then quantified using a hemocytometer. […]
After the incubation time, the cells are in each case mixed with 3 μl of Bright-Glow™ luciferase assay reagent (Promega Corporation, Madison, USA) per well. The plates are then placed in the dark for 30 minutes and subsequently measured in a CyBiTM Lumax reader. […]
The inhibition was calculated as follows: [1−(LCSsample−LCSposcontr)/(LCSnegcontr−LCSposcontr)]×100(%)
Background: In a reporter assay the amount or activity of a reporter protein is the signal.

Turning to `O=C(O)C[C@@H]1[C@H]2C=C[C@H]3C(c4ccc5c(c4)OCO5)=C[C@@H](O)[C@@H]4C[C@H]1[C@@H]2[C@H]43` [Endiandric acid H, endiandric acid H], in data set [1] (polar organic solvents), the “Solubility in polar organic solvents” value is listed as “soluble in polar organic solvents”. Moreover, the Solubility in water entry in data set [1] (water) was “only slightly soluble in water”. Besides, the Stability entry in data set [2] was “stable in the solid state and in solutions in the pH range between 3 and 8”. In addition, the concentration for half-maximal inhibition (IC50) at c-maf came out at 1500 nM.

What is called IC50 is the point on the concentration scale where inhibition reaches its midpoint.

Source of the values: US7019028B2, “Endiandric acid H and its derivatives, process for their preparation and use thereof” (Aventis Pharma Deutschland GmbH, priority 2002, dated 2006).
